Patent US9750805B2, “Calcium flux agonists and methods therefor” (Nant Holdings IP, LLC, priority 2012, dated 2017)

Legend:
S. aureus [1] = test: Antibiotic sensitivity of S. aureus (OD600 / plating, FIGS. 9A-9C, 10); type: cell-based; conditions: log phase culture, OD600 over time, control kanamycin, 9B
Description: To determine the antibiotic sensitivity of S. aureus, cultures were grown overnight in tryptic soy broth (Cellgro). The resulting cultures were used to inoculate new cultures to ensure log phase growth prior to the start of the experiment. Once the bacteria had reached log phase the bacteria was diluted to the appropriate OD600˜0.05 and transferred to a 24-well plate. Compounds of interest were added and plates were incubated in a shaking incubator at 37° C. Aliquots were removed at various time points and their respective OD600 was measured using a BioTek Synergy2 microplate reader (BioTek, Winooski, Vt.). For wells whose turbidity was affected by the addition of the compounds of interest, aliquots were removed and plated on tryptic soy agar (Cellgro) and incubated overnight in a 37° C. incubated and counted the following day. Thus, it should be appreciated that the calcium flux agonists are effective in antimicrobial treatments via an indirect effect, most likely due to the enhanced production of IL-8 and increased NF-κB-driven transcription.

[2] = test system: κB-LUC THP-1 (NF-κB Luciferase Reporter); test: NF-κB activation, luciferase reporter, dose response without added ligand; type: cell-based, human; conditions: κB-LUC THP-1, 24 hours, increasing concentrations, no added ligand; FIGS. 1A-1C
Text: The inventors performed several studies to identify the effect of calcium flux agonists on various components of an immune response, and particularly on the effect of calcium flux agonists on IL-8 production and activation of NF-κB signaling. […] The dose response is observed over relatively large windows for ionophores (e.g., A23187 and ionomycin) and over at least two orders of magnitude for SERCA inhibitors (e.g., thapsigargin).
More specifically, the dose response of ionophores on NF-κB and IL-8 is shown in FIGS. 1A-1B using a monocyte-derived cell line to treatment and A23187 and ionomycin in the absence of externally added TLR or NOD ligands. […] FIG. 1C depicts the dose response to thapsigargin on NF-κB and IL-8.
NF-κB activation: A titration of thapsigargin (A.G. Scientific), ionomycin, and the calcium ionophore A23187 was added to a 96-well plate (Thermo Matrix) seeded with 150,000 THP-1 κB-LUC THP-1's (THP-1 cells containing the stable integration of a NF-κB Luciferase Reporter) grown in RPMI 1640 (Cellgro, Herndon VA) supplemented with 10% FBS (Thermo HyClone) and 1% penicillin-streptomycin-fungizone (Thermo HyClone). 24 hours after addition, 25 uL of Bright-Glo Luciferase Assay System (Promega, Madison Wis.) was added to each well and analyzed for luciferase activity using Perkin Elmer TopCount NXT (Perkin Elmer, Waltham Mass.).

S. aureus [3] = test: Mouse model of S. aureus skin wound infection, pre-infection topical treatment; type: in vivo, C57BL/6 mice; conditions: topical 2 mM formulation one day before infection; for bacterial burden at the infection site: day 7, vs vehicle controls; for wound size: days 3, 5 and 7 of infection, vs control treated animals, p<0.01
Description: To determine if calcium flux agonists such as the ionophores A23187 and ionomycin or the SERCA pump inhibitor thapsigargin can be used as a pre-treatment of bacterial infection, the inventors treated the shaved dorsal skin of 6-8 week old male C57B1/6 mice with vehicle alone, or formulations containing 2 mM A23187, ionomycin, or thapsigargin. One day later, the inventors superficially infected the dorsal skin of groups of 5 mice with 2×10^6 CFU of S. aureus and evaluated bacterial burden and wound size over the next week.
Topical delivery: A23187 and ionomycin and thapsigargin were reconstituted in dehydrated ethanol (Spectrum Chemicals, Gardena Calif.) to appropriate concentrations for subsequent formulations. In the pre-infection in vivo study, topical formulations consisted of 75% dehydrated ethanol (Spectrum Chemicals), 22% cyclohexane (Sigma-Aldrich), and 3% dimethyl sulfoxide (Sigma-Aldrich). Each topical formulation was delivered by submersing a circular piece of Whatman paper (Whatman, a division of GE Healthcare) with a 1.0 centimeter diameter and applying said circle to the skin of each recipient for 5 minutes.
Preparation of S. aureus for skin inoculation: Briefly, mid-logarithmic phase S. aureus bacteria was washed twice and resuspended in sterile saline (0.9%) at the noted concentrations. Mice: Male mice, 6-8 weeks old, on a C57BL/6 genetic background were used in all experiments (Jackson Laboratories, Bar Harbor, Me.).
Mouse model of S. aureus skin wound infection: To prepare animals for wound infection, the skin of the posterior upper back and neck of mice was shaved using #40 clippers. Next, three parallel 8 mm long full-thickness scalpel cuts (no. 11 blade) were made into the dermis. Resulting wounds were inoculated with 10 μl of S. aureus (2×10^8 CFUs per mL) with a micropipettor. Total lesion size (cm2) measurements were quantified by determining total pixel count from photographed animals using a millimeter ruler as a reference.
Quantification of in vivo S. aureus bacterial burden: To determine in vivo bacterial burden, infected mice were sacrificed on day 7 following infection and lesions were harvested surgically. Harvested tissues were homogenized and bacterial count was determined following plating on appropriate solid growth media.

[4] = test system: κB-LUC THP-1 reporter cells; test: κB-LUC THP-1 reporter response to S. aureus conditioned/spent media (FIGS. 5B-5E); type: cell-based, human; conditions: 1:100 conditioned media, 18 hours; 20 nM thapsigargin, 316 nM A23187, 1 μM ionomycin vs DMSO vehicle
Text: Briefly, a culture of logarithmically dividing S. aureus was washed three times with RPMI 1640 (Cellgro). Concurrently, THP-1 κB-LUC THP-1's (THP-1 cells containing the stable integration of a NF-κB luciferase reporter gene) cultured in RPMI 1640 (Cellgro) supplemented with 10% FBS (Thermo HyClone, Waltham Mass.) and 1% penicillin-streptomycin-fungizone (Thermo HyClone) were washed three times with RPMI 1640 (Cellgro) and transferred to the bottom compartment of a 24-well 0.4 μm cutoff transwell plate (Corning) at a concentration of 1.2 million/mL. Dilutions of the washed S. aureus culture were then added to the top chamber of the transwell system at the indicated initial multiplicities of infection (MOI). The cells were incubated for 18 hours at 37° C. at which time aliquots of 60,000 cells were transferred to wells in a 384-well white bottom plate (Thermo). To evaluate luciferase gene expression, Bright-Glo Luciferase Assay Reagent (Promega) was added to each well and the plates were analyzed for luciferase activity using the Perkin Elmer TopCount NXT system (Perkin Elmer).
To determine whether the recognition of S. aureus-produced products could be further augmented through modulation of calcium flux, κB-LUC THP-1 reporter cells were incubated in the presence of a 1:100 dilution (V/V) of sterile filtered S. aureus conditioned (i.e. spent) or unused sterile media and treated with a suboptimal dose (20 nM) of thapsigargin or dimethyl sulfoxide (DMSO) vehicle control as described above. Briefly, conditioned media was produced by culturing S. aureus in RPMI with 10% fetal bovine serum overnight in a shaking incubator at 37° C. following which the bacteria were pelleted by centrifugation and the supernatants filter-sterilized using a 0.2 μm filter (VWR Radnor PA). The κB-LUC THP-1 cells were incubated in the presence of the conditioned/spent media for 18 hours prior to luciferase assay as described above.

Compound	direct antibiotic effect against S. aureus (S. aureus [1])	activation of NF-κB signaling [2]	bacterial burden at the infection site (S. aureus [3])	wound size (S. aureus [3])	NF-κB reporter response to S. aureus conditioned/spent media [4]
C[C@H](CCC(=O)O)C[C@H](C)C[C@H](C)C(=O)/C=C(\O)[C@H](C)C[C@H](C)C/C=C/[C@@H](C)[C@@H](O)[C@@H](C)[C@@H](O)C[C@@H]1CC[C@@](C)([C@H]2CC[C@@](C)([C@@H](C)O)O2)O1 [ionomycin]	some direct antibiotic effect	significant increases	significantly fewer bacteria	significantly smaller wound sizes	significantly enhanced
CNc1ccc2oc(C[C@H]3O[C@@]4(CC[C@H]3C)O[C@H]([C@H](C)C(=O)c3ccc[nH]3)[C@H](C)C[C@H]4C)nc2c1C(=O)O [A23187, calcimycin]	some direct antibiotic effect	significant increases	significantly fewer bacteria	significantly smaller wound sizes	significantly enhanced
C/C=C(/C)C(=O)O[C@H]1C(C)=C2[C@H]([C@@H]1OC(=O)CCCCCCC)[C@@](C)(OC(C)=O)C[C@H](OC(=O)CCC)[C@@]1(O)[C@H]2OC(=O)[C@@]1(C)O [thapsigargin]	lack of direct antibiotic effect	significant increases	significantly fewer bacteria	significantly smaller wound sizes	significantly enhanced
